Results on 23 compounds are retold here after patent US20140045832A1, “Insulin-Like Growth Factor-1 Receptor Inhibitors” (PIRAMAL ENTERPRISES LIMITED, priority 2011, published 2014).

The target in one data set is T1, human IGF-1R (Homo sapiens, UniProt P08069).
T1 construct: IGFRK and IRK enzyme used for the assay was intracellular kinase domain of human IGF-1R and human IR; made in house
Description: In vitro IGF-1R kinase assay (HTRF). The settings on record: intracellular kinase domain GST fusion, ATP 20 μM, 1 hour at 23° C., read-out: IGFIR-Activity. Type of data set: biochemical. The protocol: The in vitro kinase assays using IGF-1R and IR kinase GST fusion proteins were conducted using a homogeneous time-resolved fluorescence (HTRF) format. […] The standard enzyme reaction buffer consisted of 50 mM Tris HCL (pH: 7.4), 1 mM EGTA, 10 mM MgCl2, 2 mM DTT, 0.01% Tween-20, IGF-1R/IR kinase enzyme, poly GT peptide substrate (Perkin Elmer [Ulight Glu-Tyr (4:1)]n) and ATP [concentration equivalent to Kmapp]. […] Briefly, 2.5 μL enzyme and 2.5 μL inhibitor was pre-incubated for 10 minutes at 23° C. followed by the addition of 2.5 μL of poly GT substrate (final concentration of 50 nM). Reaction was initiated with the addition of 2.5 μL of ATP (final concentration of 20 μM for IGF-1R assay and 10 μM for IR assay). After 1 hour incubation at 23° C., the kinase reaction was stopped with the addition of 5 μL EDTA (final concentration of 10 mM in 20 μL). Europium cryptate—labeled antiphosphotyrosine antibody PY20 (5 μL) was added (final concentration of 2 nM) and the mixture was allowed to equilibrate for 1 hour at 23° C. followed by reading the plate in an Envision plate reader. The intensity of light emission at 665 nm was directly proportional to the level of substrate phosphorylation. The IC50 values for inhibitors were determined by a four-parameter sigmoidal curve fit (Sigma plot or Graph pad).
IGFRK and IRK enzyme used for the assay was intracellular kinase domain of human IGF-1R and human IR cloned and expressed as GST fusion proteins using the baculovirus expression system and purified using glutathione—Sepharose column.
Background: TR-FRET usually uses a lanthanide donor and a delayed reading to cut background.

The next data set deals with T2, CYP3A4 (Homo sapiens, UniProt P08684).
T2 construct: purchased Invitrogen (Vivid screening kits)
In words: CYP inhibition fluorescence assay (rhCYP450, Vivid Invitrogen kit). Type of data set: in vitro ADME. The conditions noted are these: recombinant human CYP3A4, 10 μM compound, read-out: % inhibition of CYP 3A4 at 10 μM. How it is done: The % inhibition @ 10 μM data was generated from an rhCYP450/fluorescence assay according to the Vivid Invitrogen screening kits. The compounds were screened against CYP 3A4 isoform because CYP3A4 is responsible for the metabolism of approximately 50-60% of clinical drugs. The lower the percentage inhibition, the lower the CYP450 inhibitory liability of that specific compound.

Where only a bound is given, the exact number is not on record here.

The inhibition is the change of the read-out against control, counted positive when it falls.

T2 sequence (P08684 whole entry): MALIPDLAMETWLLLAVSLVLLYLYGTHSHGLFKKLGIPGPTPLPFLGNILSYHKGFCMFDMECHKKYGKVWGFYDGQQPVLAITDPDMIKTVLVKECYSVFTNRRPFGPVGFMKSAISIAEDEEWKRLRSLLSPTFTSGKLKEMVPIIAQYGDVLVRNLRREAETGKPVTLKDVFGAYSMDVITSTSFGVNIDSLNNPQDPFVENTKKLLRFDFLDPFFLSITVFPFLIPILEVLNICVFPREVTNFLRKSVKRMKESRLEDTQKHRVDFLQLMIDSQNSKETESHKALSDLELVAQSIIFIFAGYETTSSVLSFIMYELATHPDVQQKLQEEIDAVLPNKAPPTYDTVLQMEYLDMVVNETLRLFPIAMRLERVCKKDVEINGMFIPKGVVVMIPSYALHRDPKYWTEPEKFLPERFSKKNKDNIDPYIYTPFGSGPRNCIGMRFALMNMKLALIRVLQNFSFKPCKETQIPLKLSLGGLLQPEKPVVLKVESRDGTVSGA
T1 sequence (P08069 999-1274 limits assumed): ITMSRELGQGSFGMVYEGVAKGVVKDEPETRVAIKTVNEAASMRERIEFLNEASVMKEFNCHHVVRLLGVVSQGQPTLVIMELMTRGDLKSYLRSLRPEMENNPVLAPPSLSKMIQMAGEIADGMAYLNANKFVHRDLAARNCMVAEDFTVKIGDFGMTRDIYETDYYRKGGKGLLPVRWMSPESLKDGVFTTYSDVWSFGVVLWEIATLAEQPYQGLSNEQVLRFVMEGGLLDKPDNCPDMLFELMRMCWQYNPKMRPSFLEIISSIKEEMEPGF

On to `CC(C)(CC(=O)Nc1cc(Cl)cc2c(S(=O)(=O)N3CCO[C@H](COc4ccccc4)C3)c(C(N)=O)[nH]c12)C(=O)O` [Compound 10, (S)-4-(2-carbamoyl-5-chloro-3-(2-(phenoxymethyl)morpholinosulfonyl)-1H-indol-7-ylamino)-2,2-dimethyl-4-oxobutanoic acid], for which, at human IGF-1R, the IC50 was 29.9 nM.

For the compound `CCOC(=O)N1CCC(Nc2cc(F)cc3c(S(=O)(=O)N4CCO[C@H](COc5ccccc5)C4)c(C(N)=O)[nH]c23)CC1` [Compound 33, (S)-ethyl 4-(2-carbamoyl-5-fluoro-3-(2-(phenoxymethyl)morpholinosulfonyl)-1H-indol-7-ylamino)piperidine-1-carboxylate], the IC50 on human IGF-1R is less than 100 nM.

Regarding `NC(=O)c1[nH]c2c(NCc3ccc(C(=O)O)cc3)cc(Cl)cc2c1S(=O)(=O)N1CCO[C@H](COc2ccccc2)C1` [Compound 26, (S)-4-((2-carbamoyl-5-chloro-3-(2-(phenoxymethyl)morpholinosulfonyl)-1H-indol-7-ylamino)methyl)benzoic acid], the IC50 on human IGF-1R was less than 100 nM.

On to `NC(=O)c1[nH]c2c(NC(=O)CCC(=O)O)cc(Cl)cc2c1S(=O)(=O)N1CCO[C@H](COc2ccccc2)C1` [Compound 8, (S)-4-(2-carbamoyl-5-chloro-3-(2-(phenoxymethyl)morpholinosulfonyl)-1H-indol-7-ylamino)-4-oxobutanoic acid], for which the inhibition at 10 µM at CYP3A4 was found to be 0%. Further, the IC50 on human IGF-1R was found to be 6.6 nM.

Turning to `NC(=O)c1[nH]c2c(NCC3(N)CCCC3)cc(Cl)cc2c1S(=O)(=O)N1CCO[C@H](COc2ccccc2)C1` [Compound 25, (S)-7-((1-aminocyclopentyl)methylamino)-5-chloro-3-(2-(phenoxymethyl)morpholinosulfonyl)-1H-indole-2-carboxamide], the IC50 on human IGF-1R is greater than 100 nM.

As to `CC(C)CN1CCC(Nc2cc(Cl)cc3c(S(=O)(=O)N4CCO[C@H](COc5ccccc5)C4)c(C(N)=O)[nH]c23)CC1` [Compound 31, (S)-5-chloro-7-(1-isobutylpiperidin-4-ylamino)-3-(2-(phenoxymethyl)morpholinosulfonyl)-1H-indole-2-carboxamide], the IC50 on human IGF-1R amounted to 39 nM.

`NC(=O)c1[nH]c2c(NC3CCN(C(=O)NCC4CCCCC4)CC3)cc(Cl)cc2c1S(=O)(=O)N1CCO[C@H](COc2ccccc2)C1` [Compound 29, (S)-5-chloro-7-(1-(cyclohexylmethylcarbamoyl)piperidin-4-ylamino)-3-(2-(phenoxymethyl)morpholinosulfonyl)-1H-indole-2-carboxamide]: the IC50 on human IGF-1R turned out to be 32.9 nM.

For `NC(=O)CCNc1cc(Cl)cc2c(S(=O)(=O)N3CCO[C@H](COc4ccccc4)C3)c(C(N)=O)[nH]c12` [Compound 17, (S)-7-(3-amino-3-oxopropylamino)-5-chloro-3-(2-(phenoxymethyl)morpholinosulfonyl)-1H-indole-2-carboxamide], at human IGF-1R, the IC50 is 11.5 nM.

Regarding `NC(=O)c1[nH]c2c(NC(=S)Nc3ccccc3)cc(Cl)cc2c1S(=O)(=O)N1CCO[C@H](COc2ccccc2)C1` [Compound 35, (S)-5-chloro-3-(2-(phenoxymethyl)morpholinosulfonyl)-7-(3-phenylthioureido)-1H-indole-2-carboxamide], the inhibition at 10 µM on CYP3A4 was less than 40%. Further, at human IGF-1R, the IC50 worked out at 1.3 nM.

For `NC(=O)c1[nH]c2c(NC3CCCC3)cc(Cl)cc2c1S(=O)(=O)N1CCO[C@H](COc2ccccc2)C1` [Compound 24, (S)-5-chloro-7-(cyclopentylamino)-3-(2-(phenoxymethyl)morpholinosulfonyl)-1H-indole-2-carboxamide], the IC50 at human IGF-1R was greater than 100 nM.

On to `N#CCC(=O)Nc1cc(Cl)cc2c(S(=O)(=O)N3CCO[C@H](COc4ccccc4)C3)c(C(N)=O)[nH]c12` [Compound 14, (S)-5-chloro-7-(2-cyanoacetamido)-3-(2-(phenoxymethyl)morpholinosulfonyl)-1H-indole-2-carboxamide], for which the IC50 on human IGF-1R was greater than 100 nM.

On to `NC(=O)c1[nH]c2c(NC(=O)CCCC(=O)O)cc(Cl)cc2c1S(=O)(=O)N1CCO[C@H](COc2ccccc2)C1` [Compound 11, (S)-5-(2-carbamoyl-5-chloro-3-(2-(phenoxymethyl)morpholinosulfonyl)-1H-indol-7-ylamino)-5-oxopentanoic acid], for which the inhibition at 10 µM at CYP3A4 was found to be 15%. Also, the IC50 on human IGF-1R worked out at 10 nM.

Consider `NC(=O)c1[nH]c2c(NCCC(=O)O)cc(Cl)cc2c1S(=O)(=O)N1CCO[C@H](COc2ccccc2)C1` [Compound 16, (S)-3-(2-carbamoyl-5-chloro-3-(2-(phenoxymethyl)morpholinosulfonyl)-1H-indol-7-ylamino)propanoic acid], for which, on human IGF-1R, the IC50 stood at 2.6 nM.

With `NC(=O)c1[nH]c2c(NC(=O)CCCC(=O)N3CCOCC3)cc(Cl)cc2c1S(=O)(=O)N1CCO[C@H](COc2ccccc2)C1` [Compound 13, (S)-5-chloro-7-(5-morpholino-5-oxopentanamido)-3-(2-(phenoxymethyl)morpholinosulfonyl)-1H-indole-2-carboxamide], on CYP3A4, the inhibition at 10 µM worked out at 46%. Also, on human IGF-1R, the IC50 came out at 7.6 nM.

Consider `CC(C)(C)NC(=O)N1CCC(Nc2cc(Cl)cc3c(S(=O)(=O)N4CCO[C@H](COc5ccccc5)C4)c(C(N)=O)[nH]c23)CC1` [Compound 27, (S)-7-(1-(tert-butylcarbamoyl)piperidin-4-ylamino)-5-chloro-3-(2-(phenoxymethyl)morpholinosulfonyl)-1H-indole-2-carboxamide], for which, at human IGF-1R, the IC50 amounted to 9.8 nM.

In the case of `NC(=O)c1[nH]c2c(NC3CCNC3)cc(Cl)cc2c1S(=O)(=O)N1CCO[C@H](COc2ccccc2)C1` (stereo partly drawn) [Compound 32, 5-chloro-3-((S)-2-(phenoxymethyl)morpholinosulfonyl)-7-(pyrrolidin-3-ylamino)-1H-indole-2-carboxamide], the IC50 on human IGF-1R turned out to be 48.7 nM.

With `NC(=O)c1[nH]c2c(NC3CCNCC3)cc(Cl)cc2c1S(=O)(=O)N1CCO[C@H](COc2ccccc2)C1` [Compound 36, (S)-5-chloro-3-(2-(phenoxymethyl)morpholinosulfonyl)-7-(piperidin-4-ylamino)-1H-indole-2-carboxamide], the IC50 on human IGF-1R came out at 22 nM.

With `NC(=O)c1[nH]c2c(NC3CCCCC3)cc(Cl)cc2c1S(=O)(=O)N1CCO[C@H](COc2ccccc2)C1` [Compound 21, (S)-5-chloro-7-(cyclohexylamino)-3-(2-(phenoxymethyl)morpholinosulfonyl)-1H-indole-2-carboxamide], the IC50 on human IGF-1R is greater than 100 nM.

As to `CCOC(=O)CCCNc1cc(Cl)cc2c(S(=O)(=O)N3CCO[C@H](COc4ccccc4)C3)c(C(N)=O)[nH]c12` [Compound 18, (S)-ethyl 4-(2-carbamoyl-5-chloro-3-(2-(phenoxymethyl)morpholinosulfonyl)-1H-indol-7-ylamino)butanoate], the IC50 on human IGF-1R was greater than 100 nM.

`NC(=O)c1[nH]c2c(NCc3ccc(F)cc3)cc(Cl)cc2c1S(=O)(=O)N1CCO[C@H](COc2ccccc2)C1` [Compound 30, (S)-5-chloro-7-(4-fluorobenzylamino)-3-(2-(phenoxymethyl)morpholinosulfonyl)-1H-indole-2-carboxamide]: at human IGF-1R, the IC50 is greater than 100 nM.

Turning to `NC(=O)c1[nH]c2c(NCC3CCCCC3)cc(Cl)cc2c1S(=O)(=O)N1CCO[C@H](COc2ccccc2)C1` [Compound 22, (S)-5-chloro-7-(cyclohexylmethylamino)-3-(2-(phenoxymethyl)morpholinosulfonyl)-1H-indole-2-carboxamide], the IC50 at human IGF-1R is greater than 100 nM.

As to `CCOC(=O)CCCC(=O)Nc1cc(Cl)cc2c(S(=O)(=O)N3CCO[C@H](COc4ccccc4)C3)c(C(N)=O)[nH]c12` [Compound 15, (S)-ethyl 5-(2-carbamoyl-5-chloro-3-(2-(phenoxymethyl)morpholinosulfonyl)-1H-indol-7-ylamino)-5-oxopentanoate], at human IGF-1R, the IC50 was less than 100 nM.

Regarding `CC(C)(CC(=O)O)CC(=O)Nc1cc(Cl)cc2c(S(=O)(=O)N3CCO[C@H](COc4ccccc4)C3)c(C(N)=O)[nH]c12` [Compound 9, (S)-5-(2-carbamoyl-5-chloro-3-(2-(phenoxymethyl)morpholinosulfonyl)-1H-indol-7-ylamino)-3,3-dimethyl-5-oxopentanoic acid], the IC50 at human IGF-1R worked out at 55.8 nM.
